Results published in patent publication US11464749B2, “Bismuth-thiol compositions and methods of use” (Microbion Corporation, priority 2018, dated 2022).
In brackets after ≈: the same amount, converted by molar mass.

How the values were obtained:
B. cenocepacia = assay: FIC checkerboard assay; format: cell-based; conditions: during FIC testing
Acinetobacter baumannii = assay: Broth microdilution MIC (Example 12)
B. cepacia = assay: FIC checkerboard assay; format: cell-based; conditions: during FIC testing
P. aeruginosa = assay: FIC checkerboard assay; format: cell-based; conditions: during FIC testing
Pseudomonas aeruginosa = assay: Broth microdilution MIC (Example 12)
Klebsiella pneumoniae = assay: Broth microdilution MIC (Example 12)
Escherichia coli = assay: Broth microdilution MIC (Example 12)

C[C@@H](O)[C@H]1C(=O)N2C(C(=O)O)=C(S[C@@H]3CN[C@H](C(=O)N(C)C)C3)[C@H](C)[C@H]12 [MEM]
MIC (B. cenocepacia; B. cenocepacia isolate 0548 (CIP-R)): 4 µg/mL
MIC (B. cenocepacia; B. cenocepacia isolate 0813 (CIP-I)): 2 µg/mL
MIC (Acinetobacter baumannii; A. baumannii CDC 273, ESBL/OXA): >8 µg/mL
MIC (Acinetobacter baumannii; A. baumannii CDC 274, ESBL/OXA): >8 µg/mL
MIC (Acinetobacter baumannii; A. baumannii CDC 275, ESBL/OXA): >8 µg/mL
MIC (Acinetobacter baumannii; A. baumannii CDC 277, ESBL/OXA): >8 µg/mL
MIC (Acinetobacter baumannii; A. baumannii CDC 284, ESBL/OXA): >8 µg/mL
MIC (Acinetobacter baumannii; A. baumannii CDC 307, OXA): 8 µg/mL (≈ 20.9 µM)
MIC (Acinetobacter baumannii; A. baumannii CDC 308, ESBL/OXA): 8 µg/mL (≈ 20.9 µM)
MIC (Acinetobacter baumannii; A. baumannii CDC 311, OXA): >8 µg/mL
MIC (Acinetobacter baumannii; A. baumannii CDC 312, OXA): 4 µg/mL (≈ 10.4 µM)
MIC (Acinetobacter baumannii; A. baumannii CDC 313, ESBL/OXA): >8 µg/mL
MIC (Acinetobacter baumannii; A. baumannii NCTC 13304, OXA): >8 µg/mL
MIC (B. cepacia; B. cepacia isolate 0546): 4 µg/mL
MIC (B. cepacia; B. cepacia isolate 1793): 4 µg/mL
MIC (P. aeruginosa; P. aeruginosa isolate 103 (ATCC 25922), each agent tested alone, one replicate, for QC): 1 µg/mL
MIC (P. aeruginosa; P. aeruginosa isolate 6322 (MEM-R, TOB-R, AMK-R, CIP-R, AZT-R)): 16 µg/mL
MIC (P. aeruginosa; P. aeruginosa isolate 6977 (MEM-I, TOB-R, CIP-R, AZT-I)): 8 µg/mL
MIC (P. aeruginosa; P. aeruginosa isolate 7745 (MEM-R, CIP-R, AZT-R)): 16 µg/mL
MIC (P. aeruginosa; P. aeruginosa isolate 8798 (MEM-R, TOB-R, AMK-R, CIP-R, AZT-R, COL-R)): 32 µg/mL
MIC (P. aeruginosa; P. aeruginosa isolate 9108 (CIP-R, AZT-I)): 1 µg/mL
MIC (Pseudomonas aeruginosa; P. aeruginosa CDC 230, VIM/OXA): >8 µg/mL
MIC (Pseudomonas aeruginosa; P. aeruginosa CDC 231, KPC/OXA): >8 µg/mL
MIC (Pseudomonas aeruginosa; P. aeruginosa CDC 241, IMP/OXA): >8 µg/mL
MIC (Pseudomonas aeruginosa; P. aeruginosa CDC 246, NDM/OXA): >8 µg/mL
MIC (Pseudomonas aeruginosa; P. aeruginosa CDC 250, NDM/OXA): >8 µg/mL
MIC (Pseudomonas aeruginosa; P. aeruginosa CDC 356, KPC): >8 µg/mL
MIC (Pseudomonas aeruginosa; P. aeruginosa CDC 439, IMP): >8 µg/mL
MIC (Pseudomonas aeruginosa; P. aeruginosa CDC 444, VIM): >8 µg/mL
MIC (Pseudomonas aeruginosa; P. aeruginosa CDC 457, VIM): >8 µg/mL
MIC (Pseudomonas aeruginosa; P. aeruginosa CDC 516, KPC/AmpC): >8 µg/mL
MIC (Pseudomonas aeruginosa; P. aeruginosa CDC 518, KPC/AmpC): >8 µg/mL
MIC (Klebsiella pneumoniae; K. pneumoniae ATCC BAA-1705, ESBL/KPC): 8 µg/mL (≈ 20.9 µM)
MIC (Klebsiella pneumoniae; K. pneumoniae CDC 112, KPC): >8 µg/mL
MIC (Klebsiella pneumoniae; K. pneumoniae CDC 113, ESBL/KPC): >8 µg/mL
MIC (Klebsiella pneumoniae; K. pneumoniae CDC 115, ESBL/KPC): >8 µg/mL
MIC (Klebsiella pneumoniae; K. pneumoniae CDC 120, ESBL/KPC): >8 µg/mL
MIC (Klebsiella pneumoniae; K. pneumoniae CDC 126, ESBL/KPC): 4 µg/mL (≈ 10.4 µM)
MIC (Klebsiella pneumoniae; K. pneumoniae CDC 129, ESBL/KPC): 8 µg/mL (≈ 20.9 µM)
MIC (Klebsiella pneumoniae; K. pneumoniae CDC 135, ESBL/VIM): 1 µg/mL (≈ 2.61 µM)
MIC (Klebsiella pneumoniae; K. pneumoniae CDC 138, ESBL/NDM): >8 µg/mL
MIC (Klebsiella pneumoniae; K. pneumoniae CDC 158, ESBL/NDM/OXA): >8 µg/mL
MIC (Klebsiella pneumoniae; K. pneumoniae MMX 9029, ESBL): 0.015 µg/mL (≈ 0.0391 µM)
MIC (Escherichia coli; E. coli ATCC 35218, ESBL): ≤0.008 µg/mL
MIC (Escherichia coli; E. coli ATCC BAA-2471, NDM): >8 µg/mL
MIC (Escherichia coli; E. coli CDC 114, ESBL/KPC): 2 µg/mL (≈ 5.22 µM)
MIC (Escherichia coli; E. coli CDC 118, ESBL/NDM): 0.06 µg/mL (≈ 0.156 µM)
MIC (Escherichia coli; E. coli CDC 435, NDM): >8 µg/mL
MIC (Escherichia coli; E. coli CDC 451, KPC): 1 µg/mL (≈ 2.61 µM)
MIC (Escherichia coli; E. coli CDC 503, ESBL/NDM): 8 µg/mL (≈ 20.9 µM)
MIC (Escherichia coli; E. coli MMX 5745, KPC): 2 µg/mL (≈ 5.22 µM)
MIC (Escherichia coli; E. coli MMX 5755, ESBL): 0.015 µg/mL (≈ 0.0391 µM)
MIC (Escherichia coli; E. coli MMX 5756, ESBL): ≤0.008 µg/mL
MIC (Escherichia coli; E. coli MMX 5758, ESBL): ≤0.008 µg/mL
